Results from patent US11666554B2, “Use of a carbamate compound to prevent, alleviate or treat visceralgia or pain arising from visceral disease” (SK BIOPHARMACEUTICALS CO., LTD., priority 2017, dated 2023).
Marks after values point to notes of the source that are not given here.

Test system: Male ICR mice
Test: Acetic acid-induced writhing test
Format: in vivo
Conditions: for Number of writhing: mean ± standard error
Procedure: As a representative animal experimental model widely used to confirm the analgesic effect on visceral pain, an acetic acid-induced writhing test is used [T. J. Ness, Models of Visceral Nociception (1999) ILAR Journal 40: 119-128]. At this time, acetic acid is a chemical that is a stimulus used to induce pain, and when it is injected into the abdominal cavity of the mouse, characteristic writhing pain behaviors are induced in which due to the inflammatory pain caused in the peritoneum the mouse stretches both the forelimbs and the hind legs, and touches the abdomen to the floor or twists. However, when a drug having an analgesic effect, such as morphine, is injected into a mouse, the writhing pain behaviors of the mouse is reduced. As such, the degree of decreasing the writhing pain behaviors is measured to confirm the analgesic effect of the drug.
Male ICR mice (body weight: 24 to 30 g) were used in this experiment. The experimental animals were maintained at a light-and-darkness cycle of 12 hours, a temperature of 22 to 25° C., a relative humidity of 40 to 60%, and free access to water and food. For stabilization of animal behavior, the experimental animals were allowed to acclimate to the laboratory conditions for at least 1 hour before the test.
As a vehicle serving as the negative control, 30% PEG400 (v/v) was used, and Test Compound was dissolved in the vehicle and administered orally at doses of 3, 10 and 30 mg/kg. Morphine which is the positive control was dissolved in saline and administered subcutaneously at a dose of 10 mg/kg. The final dose of solution was 10 ml/kg.
After 1 hour of oral administration of the vehicle and Test Compound or 30 minutes after subcutaneous administration of morphine, the mice were gently restrained, and 0.8% (v/v) acetic acid solution was administered intraperitoneally to the abdomen of the mice. The mice were immediately returned to the observation box, and the number of writhing pain behaviors of the mice for 10 minutes was recorded.
The effect of the compound was expressed as the mean±standard error, and statistical significance was recognized when data differed by p<0.05 using one-way ANOVA and Dunnett's test.

## CN1CC[C@]23c4c5ccc(O)c4O[C@H]2[C@@H](O)C=C[C@H]3[C@H]1C5 [Morphine, reference compound]
10 mg/kg s.c.
  Suppression rate compared to negative control: 98.2%
10 mg/kg s.c., 30 minutes before i.p. 0.8% acetic acid
  Number of writhing: 0.4 ± 0.3^1) writes/10 minutes
10 mg/kg s.c., listed as morphine
  Suppression rate compared to negative control: 98.2%

## NC(=O)O[C@@H](Cn1ncnn1)c1ccccc1Cl [Test Compound, Carbamic acid (R)-1-(2-chlorophenyl)-2-tetrazol-2-yl-ethyl ester]
3 mg/kg p.o.
  Suppression rate compared to negative control: 25.8%
3 mg/kg p.o., 1 hour before i.p. 0.8% acetic acid
  Number of writhing: 17.3 ± 2.6 writes/10 minutes
10 mg/kg p.o.
  Suppression rate compared to negative control: 66.1%
10 mg/kg p.o., 1 hour before i.p. 0.8% acetic acid
  Number of writhing: 7.9 ± 2.4^1) writes/10 minutes
30 mg/kg p.o.
  Suppression rate compared to negative control: 100%
30 mg/kg p.o., 1 hour before i.p. 0.8% acetic acid
  Number of writhing: 0.0 ± 0.0^1) writes/10 minutes
